Test results published in the NIST ThermoML archive (doi:10.1021/je400917j).

Test: xn = mol fraction of the nth substance listed
Conditions: 101 kPa, Liquid; for mass density: Vibrating tube method

CC(=O)N(C)C [N,N-dimethylethanamide] + CCC(C)O
Conditions | mass density, 298.15 K [kg/m3] | mass density, 303.15 K [kg/m3] | mass density, 308.15 K [kg/m3] | mass density, 313.15 K [kg/m3] | viscosity, 298.15 K [mPa·s] | viscosity, 303.15 K [mPa·s] | viscosity, 308.15 K [mPa·s] | viscosity, 313.15 K [mPa·s]
x1 = 0.0812 | 813.5 | 808.9 | 804.1 | 799.4 | 2.57 | 2.19 | 1.89 | 1.62
x1 = 0.1602 | 823.6 | 818.7 | 813.6 | 808.6 | 2.16 | 1.88 | 1.65 | 1.44
x1 = 0.2401 | 833.9 | 828.7 | 823.7 | 818.1 | 1.81 | 1.61 | 1.45 | 1.27
x1 = 0.3499 | 848.2 | 842.6 | 837.1 | 831.6 | 1.45 | 1.35 | 1.25 | 1.12
x1 = 0.4355 | 859.4 | 853.8 | 848 | 842.5 | 1.27 | 1.21 | 1.14 | 1.03
x1 = 0.56 | 876 | 870.3 | 864.7 | 859 | 1.14 | 1.09 | 1.02 | 0.93
x1 = 0.65 | 888.1 | 882.5 | 876.8 | 871.4 | 1.08 | 1.03 | 0.95 | 0.88
x1 = 0.7398 | 900.3 | 894.9 | 890.2 | 884.2 | 1.03 | 0.98 | 0.91 | 0.84
x1 = 0.8498 | 915.4 | 910.3 | 906.1 | 900.3 | 0.99 | 0.93 | 0.86 | 0.8
x1 = 0.9389 | 927.8 | 923.1 | 918.9 | 914 | 0.96 | 0.91 | 0.82 | 0.77
x1 = 1 | 936.5 | 932 | 927.8 | 923.5 | 0.94 | 0.87 | 0.8 | 0.75

CCCC(C)O (stereo unspecified) [pentan-2-ol] + CC(=O)N(C)C
Conditions | mass density, 298.15 K [kg/m3] | mass density, 303.15 K [kg/m3] | mass density, 308.15 K [kg/m3] | mass density, 313.15 K [kg/m3] | viscosity, 298.15 K [mPa·s] | viscosity, 303.15 K [mPa·s] | viscosity, 308.15 K [mPa·s] | viscosity, 313.15 K [mPa·s]
x2 = 0 | 805.4 | 800.9 | 796.9 | 792.6 | 3.5 | 2.83 | 2.35 | 1.98
x2 = 0.0811 | 813.4 | 809 | 804.9 | 800.3 | 2.87 | 2.42 | 2.08 | 1.75
x2 = 0.16 | 821.8 | 817.3 | 813 | 808.2 | 2.35 | 2.01 | 1.8 | 1.52
x2 = 0.2399 | 830.7 | 826 | 821.6 | 816.6 | 1.93 | 1.69 | 1.57 | 1.33
x2 = 0.35 | 843.5 | 838.7 | 834.1 | 828.9 | 1.52 | 1.38 | 1.29 | 1.13
x2 = 0.4398 | 854.5 | 849.6 | 845 | 839.6 | 1.3 | 1.21 | 1.14 | 1.01
x2 = 0.5595 | 870.1 | 865 | 860.4 | 854.9 | 1.13 | 1.07 | 0.99 | 0.89
x2 = 0.6499 | 882.5 | 877.5 | 872.8 | 867.4 | 1.05 | 0.99 | 0.91 | 0.83
x2 = 0.7398 | 895.4 | 890.4 | 885.8 | 880.5 | 0.99 | 0.93 | 0.86 | 0.793
x2 = 0.8499 | 912.1 | 907.3 | 902.8 | 897.8 | 0.95 | 0.89 | 0.82 | 0.761
x2 = 0.9398 | 926.5 | 921.9 | 917.5 | 913 | 0.938 | 0.878 | 0.804 | 0.752
